The source made the active and inactive calls. The calls are words filed in the database; no cut-off is given here.
Tests used:
[1] = test system: Salmonella typhimurium; assay: Protective effect in Salmonella typhimurium TA98 assessed as decrease in ICR191-induced mutagenic effect at 0.05 to 2000 ug/plate after 4 hrs by Ames test; type: functional, organism-based; settings: Salmonella enterica subsp. enterica serovar Typhimurium
[2] = test system: Salmonella typhimurium; assay: Mutagenic activity in Salmonella typhimurium TA98 at 2 mg/plate after 4 hrs by Ames test; type: toxicity, organism-based; settings: salmonella enterica subsp. enterica serovar typhimurium
[3] = test system: Salmonella typhimurium; assay: Mutagenic activity in Salmonella typhimurium TA98 at 0.1 ug/plate after 4 hrs by Ames test; type: toxicity, organism-based; settings: salmonella enterica subsp. enterica serovar typhimurium
[4] = test system: MDBK; assay: Binding affinity to ICR191 in MDBK cells assessed as decrease in molar fraction of free mutagen at 1 to 12 mM by spectrophotometric analysis; type: cell-based
[5] = test system: MDBK; assay: Binding affinity to ICR191 in MDBK cells assessed as decrease in formation of mutagen-chromatin complex at 1 to 12 mM by spectrophotometric analysis; type: cell-based

In the case of CC(=O)CCCCn1c(=O)c2c(ncn2C)n(C)c1=O [PENTOXIFYLLINE], the Activity [1] is reported as “Active” and the Activity [2] is reported as “Non-toxic”.
For COc1ccc2nc3cc(Cl)ccc3c(NCCCNCCCl)c2c1.Cl.Cl.Cl.Cl, the Activity [3] was “Non-toxic”.
In the case of Cn1c(=O)c2c(ncn2C)n(C)c1=O, the Activity [4] is reported as “Active” and the Activity [5] is reported as “Active”.

Reference: ChEMBL document CHEMBL2384942, “Modulation of acridine mutagen ICR191 intercalation to DNA by methylxanthines--analysis with mathematical models” (Bioorg Med Chem, 2013)
